In brackets after ≈: the same amount, converted by molar mass.
Key:
[1] = test system: human pancreatic carcinoma PANC-1 cells; assay: Cytotoxicity (WST-8) against PANC-1 cells in Glucose Deficient or General Glucose Medium; type: cell-based; conditions: for IC50: Homo sapiens; for IC50 / IC50 Glucose (−): PANC-1 cells, 12 h with sample, WST-8; for S.I. (Selective index): IC50 General Glucose Medium versus IC50 Glucose Deficient Medium, PANC-1
Method: Human pancreatic carcinoma cell line PANC-1 was maintained in the DMEM supplemented with heat-inactivated 10% FBS and kanamycin (50 µg/ml) in a humidified atmosphere with 5% CO2 at 37 °C. To induce nutrient starvation, PANC-1 cells were cultured in the Glucose Deficient Medium [Basal Medium (25 mM HEPES buffer (pH 7.4) supplemented with 6.4 g/l NaCl, 700 mg/l NaHCO3, 400 mg/l KCl, 265 mg/l CaCl2·2H2O, 200 mg/l MgSO4·7H2O, 125 mg/l NaH2PO4, 0.1 mg/l Fe(NO3)·9H2O, 15 mg/l Phenol red, 10 mL/l MEM vitamin solution (X100) (GIBCO, Carlsbad, CA), 200 mmol/l L-glutamine solution (GIBCO, Carlsbad, CA), and 25 mg/l kanamycin) containing 10% dialyzed FBS]. The General Glucose Medium [Basal Medium supplemented with 10% FBS and […] glucose (final 25 mM)] was also used for control cells.
The bioassay was carried out according to a method described previously. Briefly, PANC-1 cells (1 × 10^4 cells/100 µl in 96 well plastic plate) were pre-incubated in the DMEM supplemented with 10% FBS for 24 h. The medium was then replaced with either the General Glucose Medium or Glucose Deficient Medium to induce cells adaption to the nutrient starvation. After 12-h incubation, the serially diluted samples were added, and the cells were incubated for an additional 12 h in a humidified atmosphere with 5% CO2 at 37 °C. The cell proliferation was detected using the WST-8 colorimetric reagent. The IC50 value was determined by linear interpolation from the growth inhibition curve. We assessed the selectivity of the cytotoxic activity (Selective Index, S.I.) based on the difference in the IC50 values obtained for experiments with General Glucose Media and Glucose Deficient Media.

[2] = test system: PANC-1 cells; assay: Oxygen consumption rate of PANC-1 cells (OCR Assay Kit); type: cell-based, human; conditions: PANC-1 cells in General Glucose Medium, phosphorescent probe, 180 min
Method: Oxygen consumption rate of PANC-1 cells was assayed using OCR Assay Kit (Cayman Chemical, Ann Arbor, MI, USA) as per the manufacturer’s instructions. Briefly, pre-cultured PANC-1 cells (8.0 × 10^4 cells) in the black, clear bottom 96-well plate (Corning Incorporated, NY, USA) were incubated with General Glucose Medium for 18 h at 37 °C. The cells were replenished with 140 µl of fresh medium, and the test compound was added. This was followed by adding the phosphorescent probe to measure the oxygen consumption. 100 µl of mineral oil was added in each well to restrict oxygen diffusion. The signals were measured by an Infinite M1000 microplate reader (Tecan Group Ltd., Mannedorf, Switzerland) using time-resolved mode at Ex 380 nm and Em 650 nm for 180 min with 1-min time interval. The linear regression was applied after subtracting the blank, and the oxygen consumption rate was indicated by the slope of each signal profile.

[3] = biological target: mitochondrial Complex IV (Bos taurus, UniProt P00396+P68530); assay: Mito Check Complex Activity Assay Kit, complex IV; type: biochemical; conditions: mitochondrial electron transport chain
Text: (§1) Dulbecco’s Modified Eagle’s medium (DMEM), WST-8 colorimetric reagent, and KCN were purchased from Nacalai Tesque, Inc. (Kyoto, Japan). Fetal bovine serum (FBS) and Dialyzed FBS were purchased from Equitech-Bio Inc. (Kerrville, TX, USA) and Thermo Fisher Scientific Inc. (Waltham, MA, USA), respectively. Anti-Akt, Anti-phosphorylated Akt, anti-GRP78, and anti-β-actin antibodies were obtained from Cell Signaling Technology, Inc. (Danvers, MA, USA). Horseradish peroxidase (HRP)-linked anti-rabbit IgG antibody (GE Healthcare Life Sciences, Buckinghamshire, UK) was used as secondary antibody. Mito Check Complex Activity Assay Kit (Cayman Chemical, Ann Arbor, MI, USA) was used to evaluate the effect of compound 1 on the mitochondrial complex I–V. Oxygen consumption of cells was measured by Oxygen Consumption Rate (OCR) Assay Kit (Cayman Chemical, Ann Arbor, MI, USA). Rotenone, thenoyltrifluoroacetone (TTFA), carbonyl cyanide m-chlorophenylhydrazone (CCCP), antimycin A, and oligomycin A were obtained from Tokyo Chemical Industry Co., LTD. […]
(§2) Antimycin A is a known inhibitor of complex III in the mitochondrial electron transport chain [17]. […] We also evaluated the effect of compound 1 on the oxygen consumption of PANC-1 cells cultured in the Glucose Deficient Medium.

[4] = test system: GRP78; assay: Western blotting, induction of GRP78 in PANC-1 cells; type: cell-based, human; conditions: PANC-1 in Glucose Deficient Medium, lowest test concentration 0.02 µM, 12 h, western blot
Method: (§3) PANC-1 cells (3 × 10^5 cells/2 ml in 6-well plastic plate) were pre-incubated in the DMEM supplement with 10% FBS for 24 h. The medium was then replaced with either General Glucose or Glucose Deficient Medium. […] Subsequently, the cells were rinsed with ice-cold PBS and lysed in the lysis buffer [50 mM Tris–HCl (pH 8.0) containing 150 mM NaCl, 5 mM EDTA, 1% glycerol, 1% NP-40, 1% protease inhibitor cocktail, and 1% phosphatase inhibitor cocktail]. The cell lysate was analyzed by SDS-PAGE and transferred onto PVDF membranes (GE Healthcare Life Sciences Buckinghamshire, UK). The membranes were then incubated with appropriate primary antibodies followed by HRP-conjugated secondary antibodies, and the immunopositive bands were visualized using an ECL kit (GE Healthcare Life Sciences). The luminescent signals were analyzed using an Image Quant LAS4010 Scanner (GE Healthcare Life Sciences).

[5] = biological target: mitochondrial Complex I (Bos taurus, UniProt P03887+P17694+P42026); assay: biochemical; conditions: mitochondrial electron transport chain
[6] = test system: human cervix epithelioid carcinoma HeLa cells; conditions: cited from earlier work
[7] = test system: rat adrenal pheochromocytoma cell line PC12; conditions: PC12 cells, cited from earlier work
[8] = test system: Akt and phosphorylated Akt; assay: Western blotting, Akt signaling in PANC-1 cells; type: cell-based, human; conditions: PANC-1 in Glucose Deficient Medium, 0.02–0.3 µM, 12 h, western blot
Method: as §3

[9] = test system: human leukemic Jurkat cell line; conditions: read-out: IC50 cytotoxicity Jurkat; cited from earlier work
[10] = biological target: mitochondrial Complex II/III (Bos taurus, UniProt P00125+P00157+P13272); assay: Mito Check Complex Activity Assay Kit, complex II/III; type: biochemical; conditions: mitochondrial electron transport chain
Text: as §1, §2

[11] = biological target: mitochondrial Complex V (Bos taurus, UniProt P00829+P00847+P19483+P32876); assay: Mito Check Complex Activity Assay Kit, complex V; type: biochemical; conditions: mitochondrial electron transport chain
Text: as §1, §2

[12] = biological target: T1, mitochondrial Complex II (Bos taurus, UniProt P31039+P35720+Q3T189+Q95123); assay: Mito Check Complex Activity Assay Kit, complex II; type: biochemical; conditions: mitochondrial electron transport chain
T1 construct: purchased Cayman Chemical
Text: as §1, §2

T1 sequence (P31039 44-665): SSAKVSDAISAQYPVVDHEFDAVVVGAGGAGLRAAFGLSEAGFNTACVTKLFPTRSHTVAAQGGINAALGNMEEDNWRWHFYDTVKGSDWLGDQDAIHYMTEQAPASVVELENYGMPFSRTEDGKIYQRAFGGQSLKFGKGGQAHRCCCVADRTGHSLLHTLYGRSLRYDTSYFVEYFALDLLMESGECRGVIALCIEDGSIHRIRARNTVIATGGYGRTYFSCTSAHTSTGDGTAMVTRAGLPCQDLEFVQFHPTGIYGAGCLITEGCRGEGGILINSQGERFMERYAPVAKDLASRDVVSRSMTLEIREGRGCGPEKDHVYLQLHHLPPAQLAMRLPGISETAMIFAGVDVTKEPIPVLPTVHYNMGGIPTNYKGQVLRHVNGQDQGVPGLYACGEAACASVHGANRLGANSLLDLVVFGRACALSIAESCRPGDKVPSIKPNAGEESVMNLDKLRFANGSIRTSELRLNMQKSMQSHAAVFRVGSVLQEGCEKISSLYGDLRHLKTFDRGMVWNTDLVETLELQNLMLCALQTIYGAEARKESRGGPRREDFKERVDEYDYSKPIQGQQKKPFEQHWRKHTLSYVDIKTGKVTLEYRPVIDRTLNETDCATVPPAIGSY
T1 sequence (Q3T189 29-280): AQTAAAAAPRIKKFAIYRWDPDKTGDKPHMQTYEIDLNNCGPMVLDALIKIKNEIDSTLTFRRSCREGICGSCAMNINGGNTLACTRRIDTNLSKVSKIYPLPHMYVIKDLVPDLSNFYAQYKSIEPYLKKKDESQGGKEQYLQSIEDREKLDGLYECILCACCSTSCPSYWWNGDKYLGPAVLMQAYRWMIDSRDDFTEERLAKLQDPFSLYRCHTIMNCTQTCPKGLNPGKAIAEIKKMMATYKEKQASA
T1 sequence (P35720 30-169): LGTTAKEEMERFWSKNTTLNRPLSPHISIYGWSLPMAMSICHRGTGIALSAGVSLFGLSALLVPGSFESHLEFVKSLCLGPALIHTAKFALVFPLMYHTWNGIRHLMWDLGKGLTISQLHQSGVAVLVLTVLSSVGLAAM
T1 sequence (Q95123 56-158): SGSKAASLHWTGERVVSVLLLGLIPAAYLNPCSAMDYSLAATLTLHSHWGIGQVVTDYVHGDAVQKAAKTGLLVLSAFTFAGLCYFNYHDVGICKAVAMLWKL

Row | Structure (SMILES) | IC50 ([1]; Glucose Deficient Medium) [µM] | S.I. (Selective index) [1] | oxygen consumption of PANC-1 cells [2] | IC50 ([1]; General Glucose Medium) [µM] | IC50 [12] [µM] | IC50 Glucose (−) ([1]; Glucose Deficient Medium) | further results
1 | CCCCCC[C@H]1C(=O)O[C@H](C)[C@H](NC(=O)c2cccc(NC=O)c2O)C(=O)O[C@@H](C)[C@@H]1OC(=O)CC(C)C [Antimycin A, reference compound] | 0.0003 | 960,000 | inhibited the oxygen consumption |  |  |  | 
2 | N#CC(C#N)=NNc1cccc(Cl)c1 [CCCP, carbonyl cyanide m-chlorophenylhydrazone] |  |  | showed the opposite effect to antimycin A |  |  |  | 
3 | COc1ccc(C2SSC34CC5(O)C(Cl)C=CC(O)C5ON3C(=O)C2NC4=O)c(O)c1OC (stereo not drawn) [Compound 1, DC1149B] | 0.02 |  | inhibited the oxygen consumption | 710 | 19 |  | IC50 [3]: > 30 µM; expression of GRP78 [4]: decreased the expression of GRP78 in the nutrient-starved cells to the basal level; IC50 [5]: > 30 µM; IC50 cytotoxic activity HeLa [6]: 50.1 µg/mL (≈ 96.9 µM); IC50 ([6]; read-out: IC50 cytotoxic activity HeLa): 97.1 µM; IC50 cytotoxic activity PC12 [7]: 21.9 µg/mL (≈ 42.4 µM); IC50 ([7]; read-out: IC50 cytotoxic activity PC12): 42.4 µM; levels of Akt and phosphorylated Akt [8]: reduced the levels of Akt and phosphorylated Akt in the nutrient-starved cells in a dose-dependent manner; IC50 [9]: 5.1 µM; IC50 [10]: > 30 µM; IC50 [11]: > 30 µM
4 | COc1ccc2cc(NC(=O)C3=NO[C@H]4[C@H](O)C=C[C@@H](O)[C@@]4(O)C3)c(=O)oc2c1OC [Compound 2, trichodermamide A] | 270 | > 3.7 |  | > 1000 |  | very weak | 
5 | COc1ccc2cc(NC(=O)C34CC5(O)C(C=CC(O)C5ON3)S4)c(=O)oc2c1OC (stereo not drawn) [Compound 3, aspergillazine A] | > 1000 |  |  | > 1000 |  | very weak | 
6 | O=C(CC(=O)C(F)(F)F)c1cccs1 [thenoyltrifluoroacetone, reference compound] |  |  |  |  | 65 |  | 
